In publication PMC5097879 (European journal of medicinal chemistry, 2016):
Counter-ions that a name gives are not always drawn. Like-named read-outs stand apart in the source and are kept apart here.

How the values were obtained:
mice [1] = assay: SmartCube behavioral platform; format: in vivo, mouse; conditions: 15 min preinjection; for SmartCube behavioral signature, extent of effect: 5 and 10 mg/kg i.p.; for SmartCube behavioral signature, 10 mg/kg compared to 5 mg/kg: i.p.
HS α4β2-nAChR [2] = biological target: T1, HS α4β2-nAChR (Homo sapiens, UniProt P17787+P43681); assay: 86Rb+ ion efflux assay, efficacy at HS α4β2; format: cell-based; conditions: relative to full agonist carbamylcholine; ± SEM
α7 subtype = conditions: read-out: Ki α7 subtype; ref [15], [16]; cited from earlier work
[3] = test system: high sensitivity (HS) α4β2-nAChR; conditions: oocytes expressing human nAChRs; ref [15], [16]; cited from earlier work
β2-nAChRs = assay: [3H]epibatidine binding competition, β2-nAChRs overall; set-up: species or system rat; conditions: versus parent compound 8
HS α4β2-nAChR [4] = biological target: T1, HS α4β2-nAChR; conditions: relative to carbamylcholine; ref [8], [9]; cited from earlier work
[5] = biological target: human α4β2-nAChRs (mixture of HS and LS) (Homo sapiens, UniProt P17787+P43681); conditions: SH-EP1-hα4β2 cells; ref [8], [9]; cited from earlier work
LS α4β2-nAChR = LS α4β2-nAChR (Homo sapiens, UniProt P17787+P43681); conditions: relative to carbamylcholine; ref [8], [9]; cited from earlier work
[6] = biological target: α4β2* endogenous receptors prepared from rat forebrain (Rattus norvegicus, UniProt P09483+P12390); assay: [3H]epibatidine binding competition, α4β2*; conditions: versus the N-H analogue
rat α4β2 nAChR = rat α4β2 nAChR (Rattus norvegicus, UniProt P09483+P12390); format: binding; conditions: versus the N-H analogue
mice [7] = assay: Mouse forced swim test; format: in vivo; conditions: BALB/cJ mice, 6-min test, P < 0.05
[8] = ref [12]; cited from earlier work

Which “SmartCube behavioral signature, extent of effect” value (mice [1]) does the source give for `COCC[C@@H]1C[C@H]1c1cncc(N2CCCNCC2)c1` [Compound 25, 1-[5-[(1R,2S)-2-(2-methoxyethyl)cyclopropyl]pyridin-3-yl]-1,4-diazepane] here?
Its value is “most prominent effects”.

And the “SmartCube behavioral signature, 10 mg/kg compared to 5 mg/kg” value (mice [1])?
Its value is “marked increase”.

What about the “Agonism HS-α4β2 Efficacy” value (HS α4β2-nAChR [2]) of the same compound?
Its value is 58–81%.

With `OCCc1cc(-c2cncc(N3CCCNCC3)c2)on1` [Compound 30] as the compound, how does the “SmartCube behavioral signature, extent of effect” value (mice [1]) read?
Its value is “most prominent effects”.

What about the “SmartCube behavioral signature, 10 mg/kg compared to 5 mg/kg” value (mice [1]) of the same compound?
The value was “marked increase”.

And the “Agonism HS-α4β2 Efficacy” value (HS α4β2-nAChR [2])?
The value was 58–81%.

Which Ki (α7 subtype) does the source give for `c1cncc(N2CCCNCC2)c1` [Compound 7, 1-(pyridin-3-yl)-1,4-diazepane] here?
Its Ki is 0.136 µM.

And the “efficacy relative to acetylcholine at HS α4β2-nAChR” value [3]?
The value was 41%.

With `COCC[C@H]1C[C@@H]1c1cncc(N2C[C@@H]3C[C@H]2CN3)c1` [Compound 23, (1S,4S)-2-[5-[(1S,2R)-2-(2-methoxyethyl)cyclopropyl]pyridin-3-yl]-2,5-diazabicyclo[2.2.1]heptane] as the compound, how does the “decline in binding affinities at β2-nAChRs” value (β2-nAChRs) read?
Its value is at least 6 fold.

For `c1cnc2cc3c(cc2n1)[C@@H]1CNC[C@H]3C1` [Compound 1, varenicline], which “Agonism HS-α4β2 Efficacy” value (HS α4β2-nAChR [4]) is on record?
Its value is 106 ± 5.9%.

And the “Inactivation Efficacy” value [5]?
The value was 83 ± 1.0%.

What about the “Agonism LS-α4β2 Efficacy” value (LS α4β2-nAChR) of the same compound?
The value was 34 ± 3.3%.

With `COCC[C@H]1C[C@@H]1c1cncc(N2CCCN(C)CC2)c1` [Compound 22, 1-[5-[(1S,2R)-2-(2-methoxyethyl)cyclopropyl]pyridin-3-yl]-4-methyl-1,4-diazepane trifluoroacetate] as the compound, how does the “drop in binding affinity at α4β2* caused by N-methyl group” value [6] read?
The value was “more than 10 fold”.

And the “drop in binding affinity at α4β2 caused by N-methyl group” value (rat α4β2 nAChR)?
Its value is “more than 10 fold”.

For `COCC[C@H]1C[C@@H]1c1cncc(N2CCCNCC2)c1` [Compound 21, 1-[5-[(1S,2R)-2-(2-Methoxyethyl)cyclopropyl]pyridin-3-yl]-1,4-diazepane trifluoroacetate], which “SmartCube behavioral signature, extent of effect” value (mice [1]) is on record?
Its value is “most prominent effects”.

And the “SmartCube behavioral signature, 10 mg/kg compared to 5 mg/kg” value (mice [1])?
Its value is “fairly similar behavioral signature”.

And the “Agonism HS-α4β2 Efficacy” value (HS α4β2-nAChR [2])?
The value was 58–81%.

And the “total immobility time compared to control group (water)” value (mice [7]; acute PO 1 mg/kg)?
The value was “significantly decreased”.

What about the “total immobility time compared to control group (water)” value (mice [7]; acute PO 10 mg/kg) of the same compound?
Its value is “significantly decreased”.

With `Clc1ccc(OC[C@H]2CCN2)cn1` [Compound 5] as the compound, how does the “stability in the presence of HCl or TFA following exposure to water” value [8] read?
The value was “dimerize to compound 6”.

With `COCC[C@@H]1C[C@H]1c1cncc(N2C[C@@H]3C[C@H]2CN3)c1` [Compound 26, (1S,4S)-2-[5-[R,2S)-(2-(2-methoxyethyl)cyclopropyl]pyridin-3-yl]-2,5-diazabicyclo[2.2.1]heptane] as the compound, how does the “decline in binding affinities at β2-nAChRs” value (β2-nAChRs) read?
The value was at least 6 fold.
